How the values were obtained:
blackgrass = experiment: Test B pre/postemergence blackgrass; format: in vivo, Alopecurus myosuroides
In short: (§1)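 Response is a visual 0-to-10 score relative to untreated plants, where 0 means no effect and 10 means complete control, taken twelve to sixteen days after application. Treatments went onto soil at planting and onto foliage of 1- to 4-leaf plants, using a surfactant-containing non-phytotoxic solvent.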

morningglory = experiment: Test B pre/postemergence morningglory; format: in vivo, Ipomoea hederacea
In short: as §1

pigweed = experiment: Test B pre/postemergence pigweed; format: in vivo, Amaranthus retroflexus
In short: as §1

wheat = experiment: Test B pre/postemergence wheat; format: in vivo, Triticum aestivum
In short: as §1

rice = experiment: Test B flood test rice; format: in vivo, Oryza sativa
In short: (§2)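 Plants were grown to the 2-leaf stage before treatment with test chemical, then held in a greenhouse for twelve to sixteen days. Injury was visually rated against untreated controls on a 0–10 scale, where 0 is no effect and 10 is complete control.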

sugar beet = experiment: Test B pre/postemergence sugar beet; format: in vivo, Beta vulgaris
In short: as §1

giant foxtail = experiment: Test B pre/postemergence giant foxtail; format: in vivo, Setaria faberii
In short: as §1

soybean = experiment: Test B pre/postemergence soybean; format: in vivo, Glycine max
In short: as §1

purple nutsedge = experiment: Test B pre/postemergence purple nutsedge; format: in vivo, Cyperus rotundus
In short: as §1

duck salad = experiment: Test B flood test duck salad; format: in vivo, Heteranthera limosa
In short: as §2

crabgrass = experiment: Test B pre/postemergence crabgrass; format: in vivo, Digitaria sanguinalis
In short: as §1

smallflower flatsedge = experiment: Test B flood test smallflower flatsedge; format: in vivo, Cyperus difformis; conditions: for S. Flatsedge plant response rating: scale of 0 to 10 where 0 is no effect and 10 is complete control
In short: as §2

corn = experiment: Test B pre/postemergence corn; format: in vivo, Zea mays
In short: as §1

cocklebur = experiment: Test B pre/postemergence cocklebur; format: in vivo, Xanthium strumarium
In short: as §1

rape = experiment: Test B pre/postemergence rape; format: in vivo, Brassica napus
In short: as §1

velvetleaf = experiment: Test B pre/postemergence velvetleaf; format: in vivo, Abutilon theophrasti
In short: as §1

[1] = Postemergence, Rate 125 g/ha, scale of 0 to 10 where 0 is no effect and 10 is complete control
[2] = Preemergence, Rate 62 g/ha, scale 0 to 10 (0 no effect, 10 complete control)
[3] = Preemergence, Rate 125 g/ha, 0 is no effect, 10 is complete control
[4] = Preemergence, Rate 250 g/ha, scale 0 to 10, 0 is no effect, 10 is complete control
[5] = Preemergence, Rate 500 g/ha, scale 0 to 10 (0 no effect, 10 complete control)
[6] = Rate 62 g/ha, Postemergence, scale of 0 to 10 where 0 is no effect and 10 is complete control
[7] = Rate 250 g/ha, Postemergence, scale 0 to 10, 0 is no effect, 10 is complete control
[8] = Rate 500 g/ha, Postemergence, scale 0 to 10
[9] = Postemergence (flood test species), Rate 125 g/ha, scale of 0 to 10 where 0 is no effect and 10 is complete control
[10] = Rate 31 g/ha, Postemergence section (flood test species), scale 0 to 10
[11] = Rate 62 g/ha, Postemergence section, flood test species, scale of 0 to 10 where 0 is no effect and 10 is complete control
[12] = Rate 250 g/ha, Postemergence (flood test), scale 0 to 10, 0 is no effect, 10 is complete control

## CC(C)N(C(=O)n1oc(=O)n(C)c1=O)c1ccc(F)cc1 [Compound 138]
blackgrass; [1]
  Blackgrass plant response rating: 9
blackgrass; [2]
  Blackgrass plant response rating: 9
blackgrass; [3]
  Blackgrass plant response rating (0 to 10 scale): 9
blackgrass; [4]
  Blackgrass plant response rating: 9
blackgrass; [5]
  Blackgrass plant response rating: 9
blackgrass; [6]
  Blackgrass plant response rating: 7
blackgrass; [7]
  Plant response rating, Blackgrass: 9
blackgrass; [8]
  Blackgrass plant response rating: 9
morningglory; [1]
  Morningglory plant response rating: 5
morningglory; [2]
  Morningglory plant response rating: 0
morningglory; [3]
  Morningglory plant response rating (0 to 10 scale): 0
morningglory; [4]
  Morningglory plant response rating: 3
morningglory; [5]
  Morningglory plant response rating: 4
morningglory; [6]
  Morningglory plant response rating: 5
morningglory; [7]
  Plant response rating, Morningglory: 6
morningglory; [8]
  Morningglory plant response rating: 10
pigweed; [1]
  Redroot pigweed plant response rating: 5
pigweed; [2]
  Redroot pigweed plant response rating: 9
pigweed; [3]
  Redroot pigweed plant response rating (0 to 10 scale): 10
pigweed; [4]
  Redroot pigweed plant response rating: 10
pigweed; [5]
  Redroot pigweed plant response rating: 10
pigweed; [6]
  Redroot pigweed plant response rating: 3
pigweed; [7]
  Plant response rating, Redroot pigweed: 7
pigweed; [8]
  Redroot pigweed plant response rating: 8
wheat; [1]
  Wheat plant response rating: 8
wheat; [2]
  Wheat plant response rating: 3
wheat; [3]
  Wheat plant response rating (0 to 10 scale): 5
wheat; [4]
  Wheat plant response rating: 6
wheat; [5]
  Wheat plant response rating: 9
wheat; [6]
  Wheat plant response rating: 3
wheat; [7]
  Plant response rating, Wheat: 8
wheat; [8]
  Wheat plant response rating: 8
rice; [9]
  Rice plant response rating: 7
rice; [10]
  Rice plant response rating: 0
rice; [11]
  Rice plant response rating: 0
rice; [12]
  Plant response rating, Rice: 8
Sugar beet; [1]
  Sugarbeets plant response rating: 0
Sugar beet; [2]
  Sugarbeets plant response rating: 9
Sugar beet; [3]
  Sugarbeets plant response rating (0 to 10 scale): 10
Sugar beet; [4]
  Sugarbeets plant response rating: 10
Sugar beet; [5]
  Sugarbeets plant response rating: 10
Sugar beet; [6]
  Sugarbeets plant response rating: 0
Sugar beet; [7]
  Plant response rating, Sugarbeets: 6
Sugar beet; [8]
  Sugarbeets plant response rating: 8
Giant foxtail; [1]
  Giant foxtail plant response rating: 9
Giant foxtail; [2]
  Giant foxtail plant response rating: 7
Giant foxtail; [3]
  Giant foxtail plant response rating (0 to 10 scale): 9
Giant foxtail; [4]
  Giant foxtail plant response rating: 10
Giant foxtail; [5]
  Giant foxtail plant response rating: 10
Giant foxtail; [6]
  Giant foxtail plant response rating: 9
Giant foxtail; [7]
  Plant response rating, Giant foxtail: 9
Giant foxtail; [8]
  Giant foxtail plant response rating: 9
soybean; [1]
  Soybean plant response rating: 3
soybean; [2]
  Soybean plant response rating: 0
soybean; [3]
  Soybean plant response rating (0 to 10 scale): 4
soybean; [4]
  Soybean plant response rating: 5
soybean; [5]
  Soybean plant response rating: 8
soybean; [6]
  Soybean plant response rating: 2
soybean; [7]
  Plant response rating, Soybean: 4
soybean; [8]
  Soybean plant response rating: 4
Purple nutsedge; [1]
  Nutsedge plant response rating: 5
Purple nutsedge; [2]
  Nutsedge plant response rating: 2
Purple nutsedge; [3]
  Nutsedge plant response rating (0 to 10 scale): 5
Purple nutsedge; [4]
  Nutsedge plant response rating: 7
Purple nutsedge; [5]
  Nutsedge plant response rating: 7
Purple nutsedge; [6]
  Nutsedge plant response rating: 4
Purple nutsedge; [7]
  Plant response rating, Nutsedge: 6
Duck salad; [9]
  Ducksalad plant response rating: 0
Duck salad; [10]
  Ducksalad plant response rating: 0
Duck salad; [11]
  Ducksalad plant response rating: 0
Duck salad; [12]
  Plant response rating, Ducksalad: 2
crabgrass; [1]
  Crabgrass plant response rating: 9
crabgrass; [2]
  Crabgrass plant response rating: 9
crabgrass; [3]
  Crabgrass plant response rating (0 to 10 scale): 9
crabgrass; [4]
  Crabgrass plant response rating: 10
crabgrass; [5]
  Crabgrass plant response rating: 10
crabgrass; [6]
  Crabgrass plant response rating: 8
crabgrass; [7]
  Plant response rating, Crabgrass: 9
crabgrass; [8]
  Crabgrass plant response rating: 9
Smallflower flatsedge; Postemergence (flood test species), Rate 125 g/ha
  S. Flatsedge plant response rating: 0
Smallflower flatsedge; Rate 62 g/ha, Postemergence section, flood test species
  S. Flatsedge plant response rating: 0
Smallflower flatsedge; [12]
  Plant response rating, S. Flatsedge: 7
corn; [1]
  Corn plant response rating: 4
corn; [2]
  Corn plant response rating: 0
corn; [3]
  Corn plant response rating (0 to 10 scale): 3
corn; [4]
  Corn plant response rating: 8
corn; [5]
  Corn plant response rating: 9
corn; [6]
  Corn plant response rating: 0
corn; [7]
  Plant response rating, Corn: 7
corn; [8]
  Corn plant response rating: 7
cocklebur; [1]
  Cocklebur plant response rating: 0
cocklebur; [2]
  Cocklebur plant response rating: 0
cocklebur; [4]
  Cocklebur plant response rating: 0
cocklebur; [5]
  Cocklebur plant response rating: 0
cocklebur; [6]
  Cocklebur plant response rating: 0
cocklebur; [7]
  Plant response rating, Cocklebur: 2
cocklebur; [8]
  Cocklebur plant response rating: 3
rape; [1]
  Rape plant response rating: 0
rape; [2]
  Rape plant response rating: 7
rape; [3]
  Rape plant response rating (0 to 10 scale): 9
rape; [4]
  Rape plant response rating: 10
rape; [5]
  Rape plant response rating: 10
rape; [6]
  Rape plant response rating: 0
rape; [7]
  Plant response rating, Rape: 2
rape; [8]
  Rape plant response rating: 7
velvetleaf; [1]
  Velvetleaf plant response rating: 4
velvetleaf; [2]
  Velvetleaf plant response rating: 5
velvetleaf; [3]
  Velvetleaf plant response rating (0 to 10 scale): 8
velvetleaf; [4]
  Velvetleaf plant response rating: 10
velvetleaf; [5]
  Velvetleaf plant response rating: 10
velvetleaf; [6]
  Velvetleaf plant response rating: 2
velvetleaf; [7]
  Plant response rating, Velvetleaf: 4
velvetleaf; [8]
  Velvetleaf plant response rating: 7

Reference: US6737383B1, “Herbicidal oxadiazolidines” (priority 1999, dated 2004)
